# Source: patent US10280139B2, “Cytotoxic peptides and conjugates thereof” (priority 2014, dated 2019)
# Test system: MDA-MB-231 clone 16, MDA-MB-231 clone 40, JimT-1 and HCC1954 cells
# Assay: Cell proliferation assays of anti-Her2 ADCs, results in words over the cell line panel
# Format: cell-based, human
# Conditions: Her2 high, medium and low cell lines
# Source text: Cells that naturally express target antigens or cell lines engineered to express target antigens are frequently used to assay the activity and potency of ADCs. For evaluation of the cell killing potency of anti-Her2 antibody ADCs in vitro, two engineered cell lines, MDA-MB-231 clone 16 and clone 40, and two endogenous cell lines, JimT-1 and HCC1954 cells were employed (Clinchy B, Gazdar A, Rabinovsky R, Yefenof E, Gordon B, Vitetta E S. Breast Cancer Res Treat. (2000) 61:217-228). MDA-MB-231 clone 16 cells stably express high copy numbers (˜5×10^5copies/cell) of recombinant human Her2 on the cell surface, while clone 40 expresses human Her2 at low levels (˜5×10^3 copies/cell). HCC1954 cells endogenously express high levels (˜5×10^5 copies/cell) of […] human Her2 in the surface while JimT-1 cells express human Her2 at a medium level (˜8×10^4 copies/cell). NCI-N87 cells express high levels of Her2 while A375 cell express low levels of Her2. An ADC should kill cells in an antigen-dependent manner, meaning that only cells that express sufficient antigen in the cell surface but not cells lacking the antigen will be killed. Therefore cell killing should not be observed MDA-MB-231 clone 40 cells.
# (§1) To measure antigen-dependent cell killing, cell proliferation assays were conducted with Cell-Titer-Glo™ (Promega) five days after different cell types were incubated with various concentrations of ADCs (Riss et al., (2004) Assay Drug Dev Technol. 2:51-62).
# Anti-Her2 ADCs prepared with compounds of the invention and conjugated site-specifically to anti-Her2 Cys mutant antibodies (see Table 5) were assayed in the aforementioned four cell lines to evaluate their cytotoxicity. […] In JimT-1 cells, a cell line with a medium level of Her2 expression, the cell killing activities by the ADCs varied widely. […] Many ADCs killed JimT-1 cell as effectively as HCC1954 and MDAMB231-16 cells (FIG. 1, Table 15). […] The significant differences of cytotoxic potency observed in JimT-1 cell amoung anti-Her2-LC-S159C ADCs have made it possible to rank the potency of the payloads. […] This is in contrast to the in vitro cell killing of both high and low Her2 expressing cell lines by free, unconjugated compounds of the invention (see Example 106,Table 14).
row,Structure (SMILES),Cell killing activity of anti-Her2 ADCs
1,"CC[C@H](C)[C@@H]([C@@H](CC(=O)N1CCC[C@H]1[C@H](OC)[C@@H](C)C(=O)N[C@@H](Cc1ccccc1)P(=O)(O)O)OC)N(C)C(=O)[C@@H](N=C(N(C)C)N1CCN(C(=O)CCCCCN2C(=O)C=CC2=O)CC1)C(C)C (stereo in doubt) [NL-19, ((R)-1-((2R,3R)-3-((S)-1-((3R,4S,5S)-4-((S)-2-((E)-((dimethylamino)(4-(6-(2,5-dioxo-2,5-dihydro-1H-pyrrol-1-yl)hexanoyl)piperazin-1-yl)methylene)amino)-N,3-dimethylbutanamido)-3-methoxy-5-methylheptanoyl)pyrrolidin-2-yl)-3-methoxy-2-methylpropanamido)-2-phenylethyl)phosphonic acid]",active in HCC1954 and MDAMB231-16 cells but not in JimT-1 cells
2,"CC[C@H](C)[C@@H]([C@@H](CC(=O)N1CCC[C@H]1[C@H](OC)[C@@H](C)C(=O)N[C@@H](Cc1ccccc1)C(=O)Nc1ccc(CNC(=O)CCCCCN2C(=O)C=CC2=O)cc1)OC)N(C)C(=O)[C@@H](/N=C(\N(C)C)N1CCNCC1)C(C)C [CL-5, N-(4-((S)-2-((2R,3R)-3-((S)-1-((3R,4S,5S)-4-((S)-2-((E)-((dimethylamino)(piperazin-1-yl)methylene)amino)-N,3-dimethylbutanamido)-3-methoxy-5-methylheptanoyl)pyrrolidin-2-yl)-3-methoxy-2-methylpropanamido)-3-phenylpropanamido)benzyl)-6-(2,5-dioxo-2,5-dihydro-1H-pyrrol-1-yl)hexanamide]",active in HCC1954 and MDAMB231-16 cells but not in JimT-1 cells
3,"CC[C@H](C)[C@@H]([C@@H](CC(=O)N1CCC[C@H]1[C@H](OC)[C@@H](C)C(=O)N[C@@H](Cc1ccccc1)C(=O)NS(=O)(=O)CCCn1cc(CN2C(=O)C=CC2=O)nn1)OC)N(C)C(=O)[C@@H](Nc1nccc(C)n1)C(C)C [CL-24, (S)-2-((4-methylpyrimidin-2-yl)amino)-1-(((3R,4S,5S)-1-((S)-2-((1R,2R)-3-(((S)-N-1-(3-(4-((2,5-dioxo-2,5-dihydro-1H-pyrrol-1-yl)methyl)-1H-1,2,3-triazol-1-yl)propylsulfonamido)-1-oxo-3-phenylpropan-2-yl)amino)-1-methoxy-2-methyl-3-oxopropyl)pyrrolidin-1-yl)-3-methoxy-5-methyl-1-oxoheptan-4-yl)(methyl)amino)-3-methyl-1-oxobutane]",active in HCC1954 and MDAMB231-16 cells but not in JimT-1 cells
4,"CC[C@H](C)[C@@H]([C@@H](CC(=O)N1CCC[C@H]1[C@H](OC)[C@@H](C)C(=O)N[C@@H](Cc1ccccc1)P(=O)(O)O)OC)N(C)C(=O)[C@@H](/N=C(\N(C)C)N1CCN(C(=O)CCCn2cc(CN3C(=O)C=CC3=O)nn2)CC1)C(C)C [NL-21, ((R)-1-((2R,3R)-3-((S)-1-((3R,4S,5S)-4-((S)-2-((E)-((dimethylamino)(4-(4-(4-((2,5-dioxo-2,5-dihydro-1H-pyrrol-1-yl)methyl)-1H-1,2,3-triazol-1-yl)butanoyl)piperazin-1-yl)methylene)amino)-N,3-dimethylbutanamido)-3-methoxy-5-methylheptanoyl)pyrrolidin-2-yl)-3-methoxy-2-methylpropanamido)-2-phenylethyl)phosphonic acid]",active in HCC1954 and MDAMB231-16 cells but not in JimT-1 cells
5,"CC[C@H](C)[C@@H]([C@@H](CC(=O)N1CCC[C@H]1[C@H](OC)[C@@H](C)C(=O)N[C@@H](Cc1ccccc1)C(=O)O)OC)N(C)C(=O)[C@@H](NC(=O)N(CCCNC(=O)CCCCCN1C(=O)C=CC1=O)C(C)C)C(C)C [NL-30, (S)-2-((2R,3R)-3-((S)-1-((3R,4S,7S)-4-((S)-sec-butyl)-20-(2,5-dioxo-2,5-dihydro-1H-pyrrol-1-yl)-7,10-diisopropyl-3-methoxy-5-methyl-6,9,15-trioxo-5,8,10,14-tetraazaicosan-1-oyl)pyrrolidin-2-yl)-3-methoxy-2-methylpropanamido)-3-phenylpropanoic acid]",active in HCC1954 and MDAMB231-16 cells but not in JimT-1 cells
6,"CC[C@H](C)[C@@H]([C@@H](CC(=O)N1CCC[C@H]1[C@H](OC)[C@@H](C)C(=O)N[C@@H](Cc1ccccc1)C(=O)O)OC)N(C)C(=O)[C@@H](Nc1nc(C)cc(C(=O)NCCNC(=O)CCCCCN2C(=O)C=CC2=O)n1)C(C)C [NL-38, (S)-2-((2R,3R)-3-((S)-1-((3R,4S,5S)-4-((S)-2-((4-((2-(6-(2,5-dioxo-2,5-dihydro-1H-pyrrol-1-yl)hexanamido)ethyl)carbamoyl)-6-methylpyrimidin-2-yl)amino)-N,3-dimethylbutanamido)-3-methoxy-5-methylheptanoyl)pyrrolidin-2-yl)-3-methoxy-2-methylpropanamido)-3-phenylpropanoic acid]",active in HCC1954 and MDAMB231-16 cells but not in JimT-1 cells

# Test system: H526, KU812, CMK11-5 and Jurkat cells
# Assay: Cell proliferation assays of antibody 20507 ADCs, results in words over the cell line panel
# Format: cell-based, human
# Conditions: antigen expressing cells versus Jurkat
# Description: as §1
row,Structure (SMILES),Cell killing activity of antibody 20507 ADCs
1,"CC[C@H](C)[C@@H]([C@@H](CC(=O)N1CCC[C@H]1[C@H](OC)[C@@H](C)C(=O)N[C@H](Cc1ccccc1)C(=O)Nc1ccc(CNC(=O)CCCCCN2C(=O)C=CC2=O)cc1)OC)N(C)C(=O)[C@@H](N=C(N(C)C)N(C)C)C(C)C [CL-1, N-(4-((R)-2-((2R,3R)-3-((S)-1-((3R,4S,5S)-4-((S)-2-((bis(dimethylamino)methylene)amino)-N,3-dimethylbutanamido)-3-methoxy-5-methylheptanoyl)pyrrolidin-2-yl)-3-methoxy-2-methylpropanamido)-3-phenylpropanamido)benzyl)-6-(2,5-dioxo-2,5-dihydro-1H-pyrrol-1-yl)hexanamide]",active when conjugated to antibody 20507
2,"CC[C@H](C)C([C@@H](CC(=O)N1CCC[C@H]1[C@H](OC)[C@@H](C)C(=O)N[C@@H](Cc1ccccc1)C(=O)NS(=O)(=O)CCCn1cc(CN2C(=O)C=CC2=O)nn1)OC)N(C)C(=O)[C@@H](N=C(N(C)C)N(C)C)C(C)C (stereo partly drawn) [CL-9, (S)-2-((Bis(dimethylamino)methylene)amino)-1-(((3R,4S,5S)-1-((S)-2-((1R,2R)-3-(((S)-N-1-(3-(4-((2,5-dioxo-2,5-dihydro-1H-pyrrol-1-yl)methyl)-1H-1,2,3-triazol-1-yl)propylsulfonamido)-1-oxo-3-phenylpropan-2-yl)amino)-1-methoxy-2-methyl-3-oxopropyl)pyrrolidin-1-yl)-3-methoxy-5-methyl-1-oxoheptan-4-yl)(methyl)amino)-3-methyl-1-oxobutane]",active when conjugated to antibody 20507
3,"CC[C@H](C)[C@@H]([C@@H](CC(=O)N1CCC[C@H]1[C@H](OC)[C@@H](C)C(=O)N[C@@H](Cc1ccccc1)C(=O)O)OC)N(C)C(=O)[C@@H](/N=C(\N(C)C)N1CCN(C(=O)CCCCCN2C(=O)C=CC2=O)CC1)C(C)C [NL-4, (S)-2-((2R,3R)-3-((S)-1-((3R,4S,5S)-4-((S)-2-((E)-((dimethylamino)(4-(6-(2,5-dioxo-2,5-dihydro-1H-pyrrol-1-yl)hexanoyl)piperazin-1-yl)methylene)amino)-N,3-dimethylbutanamido)-3-methoxy-5-methylheptanoyl)pyrrolidin-2-yl)-3-methoxy-2-methylpropanamido)-3-phenylpropanoic acid]",active when conjugated to antibody 20507
